Where two headings read alike, the source gives them in different places.
Tests used:
[1] = test system: Pseudoalteromonas ulvae (TC14); assay: Anti-adhesion test, strain TC14; format: cell-based; conditions: for activity at 200 µM / EC50: Pseudoalteromonas ulvae; for activity at 200 µM: 15 h; for EC50: read-out: EC50 (effective concentration to inhibit 50% of the adhesion)
In short: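 Stationary-phase TC14 cells grown in VNSS, diluted in artificial seawater and incubated with compound at eight concentrations in triplicate (DMSO ≤2%) for about 15 h. Non-adhered bacteria removed and adhered cells quantified by SYTO 61 (1 μM) staining. EC50 derived from sigmoid fit of % inhibition versus log concentration.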

Polaribacter sp. (TC5) [2] = assay: Anti-adhesion test, strain TC5; format: cell-based; conditions: for activity at 200 µM: 15 h; for EC50: read-out: EC50 (effective concentration to inhibit 50% of the adhesion)
Procedure: (§1) Bacterial strains were grown on Väätänen nine-salts solution (VNSS). When the stationary phase was reached, the bacterial suspension was centrifuged. Cells were then diluted in sterile artificial sea water (ASW) and introduced in microtiter plates (sterile black PS; Nunc, Fisher Scientific, France) with the tested compound (at eight concentrations in three replicates) in the presence of three controls: (i) non-specific staining control, (ii) adhesion control, and (iii) positive control. The maximum percentage of solvent (DMSO 2%) used to dilute the tested compound was also tested in triplicate as additional control. After incubation during an optimized adhesion time (moderately 15 h), non-adhered bacteria were eliminated and adhered cells were quantified after SYTO 61 (1 μM) staining. A percentage of inhibition was calculated per well. A sigmoid dose-response curve was obtained by plotting the percentage of inhibition as a function of the log of tested compound concentration, after mean (n=3) and standard deviation (SD) calculation per triplicate for each concentration. EC50 values were then calculated for each compound.
(§2) Polaribacter sp. (TC5) was isolated in June 2010 in the Military Harbor of Toulon (Mediterranean Sea, France) as described in F. Brian-Jaisson, A. Ortalo-Magné, L. Guentas-Dombrowsky, F. Armougom, Y. Blache, M. Molmeret, Microb. Ecol., 2014, 68, 94-110.

[3] = test system: Pseudoalteromonas lipolytica (TC8); assay: Anti-adhesion test, strain TC8; format: cell-based; conditions: Pseudoalteromonas lipolytica; for activity at 200 µM: 15 h, read-out: % of adhesion at 200 μM, TC8; for EC50: read-out: EC50 (effective concentration to inhibit 50% of the adhesion), TC8
In short: (§3)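 Stationary-phase bacteria grown in VNSS, diluted in artificial sea water and incubated about 15 h with compound at eight concentrations in triplicate, DMSO up to 2%. Adhered cells stained with SYTO 61 (1 μM). EC50 from a sigmoid fit of % inhibition against log concentration.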

[4] = test system: marine bacterial strains (TC14, TC8, 4M6, TC5 and TC11); assay: Toxicity test, summary over the strains; format: cell-based; conditions: comparison with reference biocides
Excerpt: (§4) In examples 64 and 65, the following marine bacterial strains are used.

[5] = Gravimetry (weight loss), corrosion inhibition; conditions: mild steel in 1N HCl
In short: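 Mild steel coupons (2.5×2.0×0.1 cm) immersed in non-de-aerated 1N HCl without or with various inhibitor concentrations, then washed, dried and reweighed; duplicate runs. IE (%) calculated from corrosion rates without (CR^o) and with (CR) inhibitor.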

Shewanella sp. (TC11) [6] = assay: Toxicity test, strain TC11; format: cell-based
Excerpt: (§5) Shewanella sp. (TC11) was isolated in June 2010 in the Military Harbor of Toulon (Mediterranean Sea, France) as described in F. Brian-Jaisson, A. Ortalo-Magné, L. Guentas-Dombrowsky, F. Armougom, Y. Blache, M. Molmeret, Microb. Ecol., 2014, 68, 94-110.

Shewanella sp. (TC11) [7] = assay: Anti-adhesion test, strain TC11; format: cell-based; conditions: for activity at 200 µM: 15 h, strain TC11, read-out: % of adhesion at 200 μM, TC11; for EC50: read-out: EC50 (effective concentration to inhibit 50% of the adhesion), strain TC11
Procedure: as §1, §5

Polaribacter sp. (TC5) [8] = assay: Toxicity test, strain TC5; format: cell-based; conditions: for CC50: read-out: LC50 (necessary concentration to kill 50% of the bacteria)
Excerpt: as §2

Paracoccus sp. (4M6) [9] = assay: Anti-adhesion test, strain 4M6; format: cell-based; conditions: Paracoccus; for activity at 200 µM: 15 h, read-out: % of adhesion at 200 μM, 4M6; for EC50: read-out: EC50 (effective concentration to inhibit 50% of the adhesion), 4M6
In short: as §3

Paracoccus sp. (4M6) [10] = assay: microbe, parasite or virus in culture; conditions: for CC50: Paracoccus, read-out: LC50 (necessary concentration to kill 50% of the bacteria), 4M6; for IS: LC50/EC50 (selectivity index), 4M6: strain 4M6
Excerpt: (§6) The anti-adhesion bioassays and toxicity tests are adapted from those disclosed in M. Camps, J.-F. Briand, L. Guentas-Dombrowsky, G. Culioli, A. Bazire and Y. Blache, Mar. Poll.
(§7) After growth on VNSS, bacterial strains were harvested during the exponential phase. The microtiter plates (sterile transparent PS; Nunc, Fisher Scientific) were filled as described in the Anti-adhesion test method using VNSS instead of ASW to allow bacterial growth. The growth was followed by measuring the turbidity (OD600 nm) every hour during 6 or 7 hours. Then, resazurin (50 μM) was added in all the wells, and fluorescence was measured after 2 h to quantify the percent of bacterial viability. The same methodology used with SYTO 61 was applied to calculate a percent of viability after resazurin staining.

[11] = test system: Pseudoalteromonas lipolytica (TC8); assay: microbe, parasite or virus in culture; conditions: for CC50: Pseudoalteromonas lipolytica, read-out: LC50 (necessary concentration to kill 50% of the bacteria), TC8; for IS: LC50/EC50 (selectivity index), TC8: strain TC8
Excerpt: as §6, §7

[12] = test system: marine bacterial strains (TC14, TC8, 4M6, TC5 and TC11); assay: Anti-adhesion test, summary over the strains; format: cell-based; conditions: for EC50 compared with TBTO/ZINEB: comparison with reference biocides
Procedure: as §1, §4

[13] = test system: Pseudoalteromonas ulvae (TC14); assay: Toxicity test, strain TC14; format: cell-based
Excerpt: Pseudoalteromonas ulvae (TC14) was isolated in June 2010 in the Military Harbor of Toulon (Mediterranean Sea, France) as described in F. Brian-Jaisson, A. Ortalo-Magné, L. Guentas-Dombrowsky, F. Armougom, Y. Blache, M. Molmeret, Microb. Ecol., 2014, 68, 94-110.

[14] = read-out: inhibition of the adhesion of at least four marine bacterial strains
[15] = read-out: inhibition of the adhesion of at least two marine bacterial strains

Row | SMILES | activity at 200 µM ([1]; 200 μM) [%] | EC50 [1] [µM] | activity at 200 µM (Polaribacter sp. (TC5) [2]) [%] | EC50 (Polaribacter sp. (TC5) [2]) [µM] | activity at 200 µM [3] [%] | EC50 [3] [µM] | toxicity by LC50 values compared with TBTO/ZINEB [4] | IE % ([5]; 0.1 ppm) [%] | IE % ([5]; 0.3 ppm) [%] | IE % ([5]; 0.5 ppm) [%] | IE % ([5]; 2 ppm) [%] | IE % ([5]; 10 ppm) [%] | IS: LC50/EC50 (selectivity index), TC11 (Shewanella sp. (TC11) [6]) | LC50 (necessary concentration to kill 50% of the bacteria), TC11 (Shewanella sp. (TC11) [6]) [µM] | activity at 200 µM (Shewanella sp. (TC11) [7]) [%] | EC50 (Shewanella sp. (TC11) [7]) [µM] | IS: LC50/EC50 (selectivity index), TC5 (Polaribacter sp. (TC5) [8]) | CC50 (Polaribacter sp. (TC5) [8]) [µM] | activity at 200 µM (Paracoccus sp. (4M6) [9]) [%] | EC50 (Paracoccus sp. (4M6) [9]) [µM] | other results
1 | CN(C)CCCOc1ccc(CCn2cc(-c3ccc(-c4cn(CCc5ccc(OCCCN(C)C)c(Br)c5)nn4)cc3)nn2)cc1Br [AS172, 3-(4-(2-(4-(4-(1-(4-(3-(dimethylamino)propoxy)-3-bromophenethyl)-1H-1,2,3-triazol-4-yl)phenyl)-1H-1,2,3-triazol-1-yl)ethyl)-2-bromophenoxy)-N,N-dimethylpropan-1-amine] | 0.5 ± 0.8 | 0.39 ± 0.28 | 12.7 ± 5.7 | 11 ± 0.3 | 5.3 ± 2.5 | 15 ± 3.3 | less toxic than TBTO and ZINEB | 40.16 | 92.94 | 91.11 | 96.44 | 98.15 | 18.9 | 293 | 4.6 ± 0.4 | 15.6 ± 2.9 | 11.1 | 122 | 5.1 ± 1.4 | 3.6 ± 3.8 | inhibition of the adhesion of bacterial strain TC14 ([1]; 200 μM): totally inhibit; CC50 (Paracoccus sp. (4M6) [10]): 82.3 µM; IS: LC50/EC50 (selectivity index), 4M6 (Paracoccus sp. (4M6) [10]): 22.9; CC50 [11]: 165 µM; IS: LC50/EC50 (selectivity index), TC8 [11]: 10.9; EC50 compared with TBTO/ZINEB [12]: comparable to that of TBTO and lower than that of ZINEB; inhibition at 200 µM [12, 14]: ≥ 85%; inhibition at 200 µM [12, 15]: ≥ 65%; IS: LC50/EC50 (selectivity index), TC14 [13]: 576.1; LC50 (necessary concentration to kill 50% of the bacteria), TC14 [13]: 224.7 µM
2 | CN(C)CCCOc1c(Br)cc(CCn2cc(-c3ccc(-c4cn(CCc5cc(Br)c(OCCCN(C)C)c(Br)c5)nn4)cc3)nn2)cc1Br [SA34, 3-(4-(2-(4-(4-(1-(4-(3-(dimethylamino)propoxy)-3,5-dibromophenethyl)-1H-1,2,3-triazol-4-yl)phenyl)-1H-1,2,3-triazol-1-yl)ethyl)-2,6-dibromophenoxy)-N,N-dimethylpropan-1-amine] | 13 ± 7.7 | 13.1 ± 1 | 7.9 ± 7.3 | 4.6 ± 6.3 | 10.2 ± 3.1 | 50.5 ± 10.9 | less toxic than ZINEB | 52.40 | 70.39 | 92.23 | 96.25 | 95.69 | 4.3 | 115.9 | 7 ± 3.12 | 27.2 ± 0.5 | 20.5 | 94.3 | 8.2 ± 3.5 | 1.5 ± 2.1 | CC50 (Paracoccus sp. (4M6) [10]): 114 µM; IS: LC50/EC50 (selectivity index), 4M6 (Paracoccus sp. (4M6) [10]): 75.7; CC50 [11]: 174 µM; IS: LC50/EC50 (selectivity index), TC8 [11]: 3.5; EC50 compared with TBTO/ZINEB [12]: comparable to that of ZINEB; inhibition at 200 µM [12, 14]: ≥ 85%; inhibition at 200 µM [12, 15]: ≥ 65%; IS: LC50/EC50 (selectivity index), TC14 [13]: 10.1; LC50 (necessary concentration to kill 50% of the bacteria), TC14 [13]: 132 µM

Reference: patent publication US10487071B2, “Bis-triazole compounds with anti-biofilm and anti-corrosion properties” (Université de Toulon, priority 2015, dated 2019)
